Article PMC4306520 (Journal of Medicinal Chemistry, 2014)

Columns and labels:
[1] = tested on: BxPC-3 cells; experiment: Extracellular pH; assay type: cell-based, human; conditions: BxPC-3, 100 μM, 72 h, data not shown
[2] = tested on: PANC-1/FASN and PANC-1/Vec cells; experiment: Colony formation survival assay, PANC-1/FASN vs PANC-1/Vec; assay type: cell-based, human
[3] = tested on: FASN; experiment: Western blot of FASN expression; assay type: cell-based, human
[4] = tested on: BxPC-3 cells; experiment: Apoptosis assay; assay type: cell-based, human
[5] = tested on: other Ser hydrolases in PANC-1 cell lysate; experiment: Serine hydrolase FP probe displacement assay, other serine hydrolases; assay type: binding, human; conditions: 5 μM FP probe
[6] = tested on: BxPC-3 cells; experiment: MTT assay with palmitate supplementation; assay type: cell-based, human
[7] = biological target: FASN in PANC-1 cell lysate (Homo sapiens, UniProt P49327); experiment: Serine hydrolase FP probe displacement assay, FASN; assay type: binding; conditions: 5 μM FP probe
[8] = tested on: BxPC-3 cells; experiment: Intracellular pH; assay type: cell-based, human; conditions: BxPC-3, different concentrations, 72 h

Sequence of FASN in PANC-1 cell lysate (P49327 whole entry): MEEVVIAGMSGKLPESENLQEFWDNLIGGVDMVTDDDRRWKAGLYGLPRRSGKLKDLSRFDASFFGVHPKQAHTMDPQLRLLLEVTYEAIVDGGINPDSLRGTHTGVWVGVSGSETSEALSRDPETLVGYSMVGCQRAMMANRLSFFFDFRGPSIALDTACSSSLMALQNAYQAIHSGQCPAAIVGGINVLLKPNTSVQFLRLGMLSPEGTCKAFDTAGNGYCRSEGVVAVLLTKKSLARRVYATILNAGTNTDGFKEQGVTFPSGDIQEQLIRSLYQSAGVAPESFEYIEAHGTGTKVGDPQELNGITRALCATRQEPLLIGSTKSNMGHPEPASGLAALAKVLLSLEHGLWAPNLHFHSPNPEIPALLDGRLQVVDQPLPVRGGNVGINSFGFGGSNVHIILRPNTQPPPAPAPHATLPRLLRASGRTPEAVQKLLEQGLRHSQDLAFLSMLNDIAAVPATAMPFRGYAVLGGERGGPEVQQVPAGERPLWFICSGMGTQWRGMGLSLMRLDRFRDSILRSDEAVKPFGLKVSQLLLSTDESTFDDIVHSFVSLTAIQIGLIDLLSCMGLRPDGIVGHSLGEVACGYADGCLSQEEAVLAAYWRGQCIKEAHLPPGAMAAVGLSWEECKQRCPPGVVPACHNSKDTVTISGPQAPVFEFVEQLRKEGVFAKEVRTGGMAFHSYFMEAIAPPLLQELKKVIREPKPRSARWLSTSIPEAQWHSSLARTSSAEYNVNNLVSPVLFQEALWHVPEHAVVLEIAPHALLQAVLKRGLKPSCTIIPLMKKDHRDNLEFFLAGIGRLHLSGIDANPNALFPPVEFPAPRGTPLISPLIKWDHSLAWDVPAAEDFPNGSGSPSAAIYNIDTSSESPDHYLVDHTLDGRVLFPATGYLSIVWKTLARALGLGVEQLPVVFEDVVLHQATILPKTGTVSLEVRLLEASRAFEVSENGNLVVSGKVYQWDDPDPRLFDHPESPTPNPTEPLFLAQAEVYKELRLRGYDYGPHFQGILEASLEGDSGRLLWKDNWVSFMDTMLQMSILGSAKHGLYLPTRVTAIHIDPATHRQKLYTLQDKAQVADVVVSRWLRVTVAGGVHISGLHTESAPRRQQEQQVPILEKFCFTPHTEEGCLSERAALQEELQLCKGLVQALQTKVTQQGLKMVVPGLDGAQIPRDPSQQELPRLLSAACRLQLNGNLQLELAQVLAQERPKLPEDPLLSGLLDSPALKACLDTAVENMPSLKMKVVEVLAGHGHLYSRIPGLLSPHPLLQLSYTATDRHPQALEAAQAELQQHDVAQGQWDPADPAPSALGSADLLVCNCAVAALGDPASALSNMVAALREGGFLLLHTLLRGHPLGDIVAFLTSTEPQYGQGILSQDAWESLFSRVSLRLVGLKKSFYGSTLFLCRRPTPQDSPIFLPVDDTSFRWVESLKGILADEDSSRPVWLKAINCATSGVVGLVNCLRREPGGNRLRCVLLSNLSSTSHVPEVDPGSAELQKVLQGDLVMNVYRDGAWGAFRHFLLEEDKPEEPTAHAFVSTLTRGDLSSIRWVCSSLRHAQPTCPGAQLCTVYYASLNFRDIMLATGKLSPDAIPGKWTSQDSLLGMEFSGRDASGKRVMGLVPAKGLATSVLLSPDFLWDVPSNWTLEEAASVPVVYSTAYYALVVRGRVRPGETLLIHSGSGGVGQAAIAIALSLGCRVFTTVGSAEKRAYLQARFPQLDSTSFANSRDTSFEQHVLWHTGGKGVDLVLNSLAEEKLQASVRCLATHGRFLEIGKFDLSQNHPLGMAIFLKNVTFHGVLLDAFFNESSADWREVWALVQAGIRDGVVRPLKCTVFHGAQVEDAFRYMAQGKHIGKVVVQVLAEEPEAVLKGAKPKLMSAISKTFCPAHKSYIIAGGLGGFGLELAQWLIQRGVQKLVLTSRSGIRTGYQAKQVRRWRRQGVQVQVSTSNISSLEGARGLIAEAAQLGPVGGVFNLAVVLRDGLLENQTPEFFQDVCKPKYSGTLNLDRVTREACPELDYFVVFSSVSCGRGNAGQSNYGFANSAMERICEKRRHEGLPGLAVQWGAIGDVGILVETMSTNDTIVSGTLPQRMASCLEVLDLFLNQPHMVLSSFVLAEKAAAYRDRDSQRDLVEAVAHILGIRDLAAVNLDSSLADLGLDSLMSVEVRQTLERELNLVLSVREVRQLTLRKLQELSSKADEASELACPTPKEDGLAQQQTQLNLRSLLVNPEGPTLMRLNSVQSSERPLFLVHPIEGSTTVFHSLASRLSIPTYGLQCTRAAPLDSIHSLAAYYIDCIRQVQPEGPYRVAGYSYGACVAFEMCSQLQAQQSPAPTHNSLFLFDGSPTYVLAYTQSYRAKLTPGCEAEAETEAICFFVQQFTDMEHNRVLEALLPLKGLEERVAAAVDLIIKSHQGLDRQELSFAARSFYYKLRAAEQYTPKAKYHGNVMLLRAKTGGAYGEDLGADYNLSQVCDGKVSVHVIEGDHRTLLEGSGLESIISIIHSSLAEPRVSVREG

## Cc1c(OCC(F)(F)F)ccnc1C[S+]([O-])c1nc2ccccc2[nH]1 (centres unmarked) [Lansoprazole]
[1]
  effect on extracellular pH: no change in extracellular pH
[2]
  sensitivity of PANC-1/FASN cells versus PANC-1/Vec cells: significantly more sensitive to lansoprazole than the control PANC-1/Vec cells
[3]; lansoprazole treatment, Figure 4D
  effect on total FASN level: no effect on the total FASN level
[4]; 3.75 μM palmitate
  effect of palmitate supplementation on lansoprazole-induced apoptosis: reduced lansoprazole-induced apoptosis
[4]; ELISA 72 h, PARP Western blot 24 h
  induction of apoptosis (DNA fragments, cleaved PARP-1): dose-dependently caused formation of DNA fragments and cleaved PARP-1
[5]
  effect on binding of FP probe to other Ser hydrolases: no effect on the binding of the FP probe to other Ser hydrolases
[6]; 3.75 μM palmitate
  effect of palmitate supplementation on lansoprazole cytotoxicity: significantly increased cellular resistance to lansoprazole
[7]
  inhibition of FP serine hydrolase probe labeling of FASN: inhibited labeling of FASN by the FP probe in a dose-dependent manner
[8]
  effect on intracellular pH: no significant effect on intracellular pH

## CCCCCCCCCCCCCCCC(=O)O [palmitate]
[3]; 3.75 μM palmitate, Figure 5B
  effect of palmitate on FASN expression: did not reduce FASN expression
[6]; BxPC-3, 3.75 μM
  effect of palmitate alone on cell survival: no significant effect on BxPC-3 cell survival
